# Experimental data taken from patent publication US10383938B2 (priority 2010, dated 2019).
# “And” between values parts separate entries of the source, which are not always exact repeats. Equal values may be shown once.
# Key:
# [1] = system: HA-specific IgG1 and IgG2a; set-up: species or system Balb/c male mice; settings: mouse, in vivo
# HA-specific IgG2a = system: HA-specific IgG2a; set-up: species or system mice; settings: mouse, in vivo, sc, 1 mg/kg
Compound,IgG1 End Point [1],antibody response to HA (in words) ([1]; 0.1 mg/kg),"HA Specific IgG2a, Serum Dilution End Point (HA-specific IgG2a)"
"CCCCCCCCCCCCCCCCCC(=O)NCCCCOn1c(CCCC)nc2c(N)nc3ccccc3c21 [N-(4-{[4-amino-2-butyl-1H-imidazo[4,5-c]quinolin-1-yl]oxy}butyl)octadecanamide]",1.7E7 and 1.4E7 and 1.1E7,greatly enhanced the antibody response,1.42E+04
"CCOCc1nc2c(N)nc3ccccc3c2n1CC(C)(C)O [Resiquimod, resiquimod, reference compound]",,,1.00E+05
